Measurements: patent EP0623131B1 (ANGELINI RICERCHE S.p.A. SOCIETA' CONSORTILE, priority 1992, dated 1993)

Assay: DL50 (acute lethal dose)
Conditions: species, route and unit not given

Row | SMILES | DL₅₀
1 | O=c1n(CCCN2CCN(c3cccc(Cl)c3)CC2)nc2ccccn12 [trazodone, Trazodone, reference compound] | ≥ 200
2 | CC1CN(CCCn2nc3ccccn3c2=O)CCN1c1cccc(Cl)c1 (centres unmarked) [(I) R=R'=R"=H; R'''=CH₃, 2-[3-[4-(3-chlorophenyl)-1-(3-methyl)-piperazinyl]-propyl]-1,2,4-triazole-[4,3-a]-pyridin-3(2H)-one] | ≤ 600
3 | CC(CN1CCN(c2cccc(Cl)c2)CC1)Cn1nc2ccccn2c1=O (centres unmarked) [(I) R'=R"=R'''=H; R=CH₃, 2-[3-[4-(3-chlorophenyl)-1-piperazinyl]-2-methylpropyl]-1,2,4-triazole[4,3-a]-pyridin-3-(2H)-one] | ≤ 600
4 | CC(CCn1nc2ccccn2c1=O)N1CCN(c2cccc(Cl)c2)CC1 (centres unmarked) [(I) R=R"=R'''=H; R'=CH₃, 2-[3-[4-(3-chlorophenyl)-1-piperazinyl]-3-methylpropyl]-1,2,4-triazole-[4,3-a]-pyridin-3(2H)-one] | ≤ 300
5 | CC1CN(c2cccc(Cl)c2)CCN1CCCn1nc2ccccn2c1=O (centres unmarked) [(I) R=R'=R'''=H; R"=CH₃, 2-[3-[4-(3-chlorophenyl)-1-(2-methyl)-piperazinyl]-propyl]-1,2,4-triazole-[4,3-a]-pyridin-3(2H)-one] | 300
